Earlier results as cited in US6620433B2, “Dispersible and soluble galenic paracetamol formulation, method for its preparation and its applications” (Laboratorios Belmac, S.A., priority 2000, dated 2003).

Assays:
[1] = test system: mice; conditions: interperitoneal administration

Structure (SMILES): CC(=O)Nc1ccc(O)cc1 [Paracetamol, N-(4-hydroxyphenyl) acetamide]
- solubility in cold water (cold water): barely soluble
- solubility in ether (ether): barely soluble
- solubility in methanol, ethanol, dimethylformamide, ethylene dichloride, acetone and ethyl acetate (organic solvents): soluble
- solubility in petroleum ether, pentane and benzene (petroleum ether, pentane, benzene): practically insoluble
- LD50 in mice [1]: 500 mg/kg
